One test concerns chicken Opn4-1 WT. Kind of test: GsX GloSensor assay with Gsα/q11. The class given is cell-based. Conditions: 16.7 μM AA92593, COS-1 cells. An excerpt: (§1) The GsX GloSensor assay using Gsα/q11 of Xenopus Opn4x and chicken Opn4-1 detected the light-dependent Gq activation in both non-mammalian-type melanopsins (Fig. 6, A and D). […] The ineffectiveness of AA92593 is consistent with the fact that Phe-94^2.61, Ser-188^ECL2, and Ser-269^6.52 are not conserved among non-mammalian-type melanopsins (Figs. 2A, S2 and S3). If these three residues are important for the antagonistic effect against melanopsins, the introduction of Phe-94^2.61/Ser-188^ECL2/Ser-269^6.52 into the non-mammalian-type melanopsins would make them susceptible to AA92593. As expected, the substitutions of C94^2.61F/T188S^ECL2/A269^6.52S in Xenopus Opn4x and chicken Opn4-1 increased their sensitivity to AA92593 by ∼49% and ∼22%, respectively (Fig. 6, B and E, G–I). Based on the loss-of-function properties of F94^2.61C/S188^ECL2T/S269^6.52A mutants of mammalian-type melanopsins and the gain-of-function properties of C94^2.61F/T188^ECL2S/A269^6.52S mutants of non-mammalian-type melanopsins (Figs. 2G, 3E, 6, G and H), we propose that Phe-94^2.61, Ser-188^ECL2, and Ser-269^6.52 are required for specific interactions with AA92593 as an effective antagonist. […]

The target of the next test is T1, Xenopus Opn4x WT (Xenopus laevis, UniProt O57422).
T1 construct: expressed in transfected cells; host or cells: COS-1
The experiment in a line: GsX GloSensor assay with Gsα/q11. The class given is cell-based. Conditions: 16.7 μM AA92593, COS-1 cells.
Excerpt: as §1

The structures appear in SMILES notation.

T1 sequence (O57422 1-334 limits assumed): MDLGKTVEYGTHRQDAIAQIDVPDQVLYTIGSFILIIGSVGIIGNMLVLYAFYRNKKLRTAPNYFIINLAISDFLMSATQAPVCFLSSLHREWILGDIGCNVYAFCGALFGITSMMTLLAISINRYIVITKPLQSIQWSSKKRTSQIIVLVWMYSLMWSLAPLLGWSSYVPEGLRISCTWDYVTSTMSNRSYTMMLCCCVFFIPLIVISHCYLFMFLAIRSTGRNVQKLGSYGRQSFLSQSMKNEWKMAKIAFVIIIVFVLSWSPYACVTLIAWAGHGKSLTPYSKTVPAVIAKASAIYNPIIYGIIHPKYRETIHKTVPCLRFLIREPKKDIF

As for `COc1ccc(S(=O)(=O)N2CCCCC2)cc1C` [AA92593], the “inhibition of the light-dependent responses” value in the test on chicken Opn4-1 WT and against Xenopus Opn4x WT was “did not effectively inhibit” in each case.

Source of the values: paper PMC12051620, “Molecular basis underlying the specificity of an antagonist AA92593 for mammalian melanopsins” (The Journal of Biological Chemistry, 2025).
